Columns and labels:
[1] = system: anti-Thy 1 glomerulonephritis; assay: Glomerular mRNA expression (Northern hybridization); assay type: in vivo, Sprague Dawley rats; conditions: enalapril alone
Experimental: These experiments were performed on male Sprague Dawley rats (200-250 g) obtained from the Sasco colony of Charles River Laboratories (Wilmington, Mass., USA). Animal housing and care were in accordance with the NIH Guide for the Care and Use of Laboratory Animals, NIH Publication No. 85-23, 1985. Animals were fed a normal protein diet (22% protein, Teklad No. 86 550, Teklad Premier Laboratory Diets, Madison, Wis., USA). Glomerulonephritis was induced by tail vein injection of 2.25 mg/Kg of the monoclonal anti-Thy 1.1 antibody OX-7 (NCCC, Biovest International Inc, Minneapolis, Minn., USA). OX-7 binds to a Thy 1-like epitope on the surface of mesangial cells causing complement-dependent cell lysis followed by fibrotic tissue repair (Bagchus et al., Lab Invest. 55:680-687 (1986)). Control animals were injected with similar volumes of phosphate-buffered saline (PBS). Groups of 8 rats were assigned and treated as outlined in Table 2. […] Changes in mRNA levels were determined by first correcting for the densitometric intensity of 18S for each sample. For comparison, this ratio was set at unity for normal control samples and other lanes on the same gel were expressed as fold increases over this value. […] The percent reduction in disease severity in a treated group was calculated as:

anti-Thy 1 model = conditions: monotherapy, anti-Thy 1 model (Peters et al.); L-arginine 1% in drinking water; cited from earlier work
[2] = system: anti-Thy 1 glomerulonephritis; assay: Glomerular production of fibronectin, PAI-1 and TGF-β1 (ELISA of cultured glomeruli); assay type: in vivo, Sprague Dawley rats; conditions: enalapril alone
Experimental: Animal housing and care were in accordance with the NIH Guide for the Care and Use of Laboratory Animals, NIH Publication No. 85-23, 1985. Animals were fed a normal protein diet (22% protein, Teklad No. 86 550, Teklad Premier Laboratory Diets, Madison, Wis., USA). Glomerulonephritis was induced by tail vein injection of 2.25 mg/Kg of the monoclonal anti-Thy 1.1 antibody OX-7 (NCCC, Biovest International Inc, Minneapolis, Minn., USA). OX-7 binds to a Thy 1-like epitope on the surface of mesangial cells causing complement-dependent cell lysis followed by fibrotic tissue repair (Bagchus et al., Lab Invest. 55:680-687 (1986)). Control animals were injected with similar volumes of phosphate-buffered saline (PBS). Groups of 8 rats were assigned and treated as outlined in Table 2. Doses of enalapril above […] in drinking water are maximally effective in this model (Peters et al., Kidney Int. 54:1570-1580 (1998)). […] Fibronectin and PAI-1 synthesis were measured with modified ELISA assays according to published methods ([…] al., Anal Biochem 104:205-214 (1980)). TGF-β1 production of cultured glomeruli was measured after acid-activation using a commercially available ELISA kit (DuoSet®, R&D Systems, Minneapolis, Minn., USA) according to the manufacturer's instructions. Three samples from each rat were analyzed. […] The percent reduction in disease severity in a treated group was calculated as: […]

SMILES: CCOC(=O)[C@H](CCc1ccccc1)N[C@@H](C)C(=O)N1CCC[C@H]1C(=O)O [enalapril]
- reduction of TGF-β1 mRNA [1]: 29%
- reduction of markers of fibrotic disease (anti-Thy 1 model): about 50%
- reduction of fibronectin production [2]: 53%
